Results from patent publication US11739122B2, “Glycopeptide antibiotic compounds, methods for producing the same, and uses thereof” (Academia Sinica, priority 2019, dated 2023).
Values after ≈ are worked out from the molar mass of the structure shown.

Key:
MRSA ATCC 700787 [1] = test: In vivo efficacy, intraperitoneal MRSA infection; parameters: species or system mice; conditions: peritoneal fluid, 24 hours post-inoculation, single dose 20 mgkg^−1 IP
Method: (§1) In Vivo Efficacy of r6,N-Acyl-Glc Tei Analogs
(§2) Female C57BL/6 mice (6 weeks of age; about 16-19 g, 3-5 mice per group) were intraperitoneally inoculated with 300 μL of MRSA ATCC 700787 suspension (about 10^7 CFUmL^−1). For intranasal A. baumannii (ATCC 19606) inoculation, mice were anesthetized, and inoculated intranasally with about 10^7-10^8 CFUmL^−1 A. baumannii in 50 μL of PBS. Treatments were started 1 hour after the bacterial challenge. The dose administration to mice was set as follows: teicoplanin (1) or r6,C8-Tei analog (14) 20 mgkg^−1 was intraperitoneally injected to MRSA-infected mice; amikacin (15 mgkg^−1), teicoplanin (1) (30 mgkg^−1), kanamycin (30 mgkg^−1) or r1,Me2-r6,guanidino-C8 analog (24) (30 mgkg^−1) was intraperitoneally injected to AB-infected mice. To assess bacteraemia, the test animals were sacrificed to collect 1 mL of peritoneal fluid (PF) for MRSA counting or the lungs were lavaged to collect 0.6 mL bronchoalveolar lavage (BAL) fluid for A. baumannii counting.
For MRSA, mice were inoculated intraperitoneally (IP) with 0.3 mL of MRSA ATCC 700787 suspension (about 10^7 CFUmL^−1). […] For the saline treated control, bacterial count was calculated (about 7.5 log CFUmL^−1, FIG. 4A). […]

MRSA ATCC 700787 [2] = test: Thin-section TEM, cell wall morphology; assay type: cell-based, Staphylococcus aureus
Method: Thin-Section Transmission Electron Microscopy (TEM)
An overnight cultured MRSA ATCC 700787, VRE ATCC 700221 or A. baumannii ATCC 19606 was individually sub-cultured into a fresh medium. Bacteria at the exponential phase were treated with a given test compound at a concentration of 4×MIC for 1-4 hour at 37° C. and followed by wash and resuspension in PBS. Bacteria cells for the TEM analysis were prepared as follows: Cells were fixed with 2.5% glutaraldehyde for 30 minutes. After the fixation, cells were washed twice with PBS and fixed with 1% osmium tetraoxide for another 30 minutes. All the buffer was removed with distilled water. The cells were then stained with 1% uranyl acetate and dehydrated with a graded ethanol solution. Cells were embedded in resin. Finally, each sample was cut into thin slices of approximately 90 nm with a glass knife and stained with uranyl acetate. The images of bacterial morphological were recorded.
The cell wall/membrane apparently is the targets, while the extent of damage depends on what compound imposes on the strain. […] Cell wall thickening has been a common phenotype in clinical MRSA isolates, which may well be a phenotypic determinant for VRSA. The systemic cell-wall damage may account for the cell-wall biosynthesis crippled all over the cell surface in cell-wall thickening strains, thus leading cells to lysis as a result of the osmotic pressure of cytoplasm.

A. baumannii ATCC 19606 [3] = test: MIC, broth microdilution; assay type: cell-based, Acinetobacter baumannii
Method: (§3) Determination of Minimal Inhibitory Concentration (MIC) for Vancomycin, Teicoplanin and Tei-Analogs Versus Selected Strains
(§4) MICs were determined by the broth microdilution method. Specifically, 12 Colonies of the test strain were picked up from 18-24 hour agar cultures and freshly inoculated into broth mediums until reaching the turbidity of a 0.5 McFarland standard. The broth culture was adjusted with broth medium to approximately 1×10^8 CFUmL^−1. […] The plates were incubated in 37° C. for 18-24 hours and monitored for the wells of the positive control, where cells grew, and the wells of the negative control, where wells should not grow. The MIC value was determined for the concentration of a test compound, at which there was no visible growth in the well.

HEK293T cells = test: Alamar Blue cell viability assay; assay type: cell-based, human; conditions: up to 100 μgmL^−1; 2 and 24 h
Method: The Alamar Blue (AB) assay, which includes a redox indicator that changes color or emits fluorescence in response to a metabolic activity, was used to assess in vitro mammalian cell cytotoxicity (human embryonic kidney cells (HEK293T)) upon an antibiotic treatment. 2×10^5 cellsmL^−1 were allowed to adhere on 96-well plates overnight at 37° C. in a humidified incubator (5% CO2 atmosphere). Tested compounds were dissolved in 50% DMSO to make 1 mgmL^−1 of a stock solution. Cells were separately aliquoted with 5 μL of a test compound (final concentration: 100 μgmL^−1) and incubated. PBS and 50% DMSO, which was used to dissolve compounds, served as a control. Cell viability was triplicated and assessed at 2 and 24 hour time points for each test compound, on which the measurements followed the manufacturer protocol.

VRE ATCC 700802 (vanB) = test: MIC, broth microdilution; assay type: cell-based, enterococci; conditions: VRE ATCC 700802 (vanB)
Method: as §3, §4

VRE ATCC 700221 (vanA) = test: MIC, broth microdilution; assay type: cell-based, enterococci; conditions: VRE ATCC 700221 (vanA)
Method: as §3, §4

VRE ATCC 700425 (vanC) = test: MIC, broth microdilution; assay type: cell-based, enterococci; conditions: VRE ATCC 700425 (vanC)
Method: as §3, §4

MRSA ATCC BAA-38 = test: MIC, broth microdilution; assay type: cell-based, Staphylococcus aureus; conditions: MRSA ATCC BAA-38
Method: as §3, §4

MRSA ATCC BAA-44 = test: MIC, broth microdilution; assay type: cell-based, Staphylococcus aureus; conditions: MRSA ATCC BAA-44
Method: as §3, §4

MRSA ATCC BAA-39 = test: MIC, broth microdilution; assay type: cell-based, Staphylococcus aureus; conditions: MRSA ATCC BAA-39
Method: as §3, §4

S. aureus ATCC 29213 = test: MIC, broth microdilution; assay type: cell-based, Staphylococcus aureus; conditions: SA ATCC 29213
Method: as §3, §4

MRSA ATCC 43300 = test: MIC, broth microdilution; assay type: cell-based, Staphylococcus aureus; conditions: MRSA ATCC 43300
Method: as §3, §4

MRSA ATCC 700698 hVISA = test: MIC, broth microdilution; assay type: cell-based, Staphylococcus aureus; conditions: MRSA ATCC 700698 hVISA
Method: as §3, §4

MRSA ATCC 700787 VRSA = test: MIC, broth microdilution; assay type: cell-based, Staphylococcus aureus
Method: as §3, §4

MRSA ATCC 700789 VRSA = test: MIC, broth microdilution; assay type: cell-based, Staphylococcus aureus; conditions: MRSA ATCC 700789 VRSA
Method: as §3, §4

E. faecalis ATCC 29302 = test: MIC, broth microdilution; assay type: cell-based; conditions: EF ATCC 29302
Method: as §3, §4

A. baumannii ATCC 19606 [4] = test: In vivo efficacy, intranasal A. baumannii infection; parameters: species or system mice; conditions: BAL fluid, 24 hours post-inoculation
Method: as §1, §2
For AB (ATCC 19606), female C57BL/6 mice were first anesthetized by intraperitoneal injection of zoletil and then intranasally inoculated with 50 μL of bacteria in a PBS solution (about 10^7-10^8 CFUmL^−1). The treatment started 1 hour post-infection with a single dose of compound 24 (30 mgkg^−1), compound 1 (30 mgkg^−1), amikacin (15 mgkg^−1), or kanamycin (30 mgkg^−1), where saline/compound 1 and amikacin/kanamycin respectively served as negative and positive controls. To assess the density of bacteraemia, the lungs of mice were lavaged to collect 0.6 mL bronchoalveolar lavage (BAL) fluid from each mouse at 24 hours post-inoculation. For saline/compound 1 treated controls, the bacterial load was counted (about 4 log CFUmL^−1, FIG. 4B), where the bacterial load was reduced by 0.5 or 1 log CFUmL^−1 with the treatment of amikacin/kanamycin or compound 24, respectively.

AB ATCC 19606 = test: Minimal bactericidal concentration (MBC); assay type: cell-based, Acinetobacter baumannii
Method: (§5) Minimal Bactericidal Concentration (MBC) Determination
(§6) The MBC test is an extension of the MIC examination. MBC was determined by performing subcultures on antibiotic-free agar from both the well where there was no visible growth at the MIC of a tested antibiotic and from the positive control well (with inoculum but without compounds). The plates were incubated at 37° C. for 18-24 hours. The MBC was taken as the lowest concentration of the test compound that results in more than 99.9% reduction of viable bacteria. If MBC was one or two dilutions above a given MIC value (MBC/MIC ratio was less than or equal to four), the antibiotic was considered bactericidal against the test organism.

A. baumannii ATCC 19606 [5] = test: Thin-section TEM, cell wall morphology; assay type: cell-based, Acinetobacter baumannii; conditions: AB ATCC 19606; 24 50 μM, colistin 3.2 μM, combination 25 μM each
MRSA ATCC 700787 [6] = test: Minimal bactericidal concentration (MBC); assay type: cell-based, Staphylococcus aureus
Method: as §5, §6

[7] = A. baumannii ATCC 19606, Table 3, first figure of cell
[8] = A. baumannii ATCC 19606, Table 3, second figure of cell

Compound | MIC (A. baumannii ATCC 19606 [3]; [7]) [µM] | MIC (A. baumannii ATCC 19606 [3]; [8]) [µg/mL] | cytotoxicity to HEK293T cells (HEK293T cells) | MIC (VRE ATCC 700802 (vanB)) [µg/mL] | MIC (VRE ATCC 700221 (vanA)) [µg/mL] | MIC (VRE ATCC 700425 (vanC)) [µg/mL] | MIC (S. aureus ATCC 29213) [µg/mL] | MIC (MRSA ATCC 700698 hVISA) [µg/mL] | MIC (MRSA ATCC 700787 VRSA; MRSA ATCC 700787 VRSA) [µg/mL] | MIC (E. faecalis ATCC 29302) [µg/mL] | other results
teicoplanin [Compound 1, reference compound] | 100 | 187.97 | did not exhibit any observable toxicity | 0.5 | >128 | 1 | 0.25 | 4 | 8 | 0.125 | bacterial load reduced by (MRSA ATCC 700787 [1]): 1.5 log CFUmL^−1; cell wall morphology by TEM (MRSA ATCC 700787 [2]): loose; MIC (MRSA ATCC BAA-38): 0.25 µg/mL; MIC (MRSA ATCC BAA-44): 0.5 µg/mL; MIC (MRSA ATCC BAA-39): 0.5 µg/mL; MIC (MRSA ATCC 43300): 0.25 µg/mL; MIC (MRSA ATCC 700789 VRSA): 4 µg/mL; bacterial load (A. baumannii ATCC 19606 [4]; 30 mgkg^−1): about 4 log CFUmL^−1
CN(C)[C@H]1C(=O)N[C@@H]2Cc3ccc(c(Cl)c3)Oc3cc4cc(c3O)Oc3ccc(cc3Cl)[C@@H](O[C@@H]3O[C@H](CO)[C@@H](O)[C@H](O)[C@H]3NC(=O)CCCCCCCNC(=N)N)[C@@H]3NC(=O)[C@H](NC(=O)[C@@H]4NC(=O)[C@@H](NC2=O)c2cc(O)cc(c2)Oc2cc1ccc2O)c1ccc(O)c(c1)-c1c(O)cc(O)cc1[C@@H](C(=O)O)NC3=O [Compound 24, r1,Me2-r6,C8-guanidino-Tei] | 25 | 39.24 | did not exhibit any observable toxicity | 4 (≈ 2.55 µM) | >16 | 8 (≈ 5.09 µM) | 0.5 (≈ 0.318 µM) | 0.031 (≈ 0.0197 µM) | 0.016 (≈ 0.0102 µM) | 0.5 (≈ 0.318 µM) | MBC (AB ATCC 19606): 39.24 µg/mL (≈ 25 µM); MBC/MIC (AB ATCC 19606): 1; MIC on AB (A. baumannii ATCC 19606 [3]; A. baumannii ATCC 19606): 39.24 µg/mL (≈ 25 µM); MIC (A. baumannii ATCC 19606 [3]; AB ATCC 19606, Table 4): 39.24 µg/mL; cell membrane/cell wall morphology by TEM (A. baumannii ATCC 19606 [5]): intactness of cell membrane/cell wall was severely damaged; MBC (MRSA ATCC 700787 [6]): 0.031 µg/mL (≈ 0.0197 µM); MBC/MIC (MRSA ATCC 700787 [6]): 2; MIC (MRSA ATCC 700787 VRSA; MRSA ATCC 700787, Table 4): 0.016 µg/mL (≈ 0.0102 µM); bacterial load reduced by (A. baumannii ATCC 19606 [4]; 24 and kanamycin 30, amikacin 15 mgkg^−1): 1 log CFUmL^−1
